Patent US10472366B2, “Glucuronide prodrugs of tofacitinib” (THERAVANCE BIOPHARMA R&D IP, LLC, priority 2017, dated 2019)
Where “and” joins values, the source holds several entries; their conditions need not be identical. Equal values may be shown once.

Test system: β-glucuronidase in rat colon feces
Assay: Rat colon fecal homogenate stability assay
Type: in vitro ADME
Details: in vitro half-life in rat fecal supernatant-homogenate, anaerobic, 10 μM substrate, individual values when assay repeated; for half-life at 10 μM: male, rat, rat colon fecal supernatant-homogenate, read-out: T½
From the text: The compounds of the present invention contain a glucuronide prodrug moiety that is expected to be cleaved by β-glucuronidase enzyme. The objective of this assay was to determine the half-life for compounds of the present invention in the presence of β-glucuronidase in rat colon feces.
Following sacrifice of a naïve male rat (˜300 g) by cardiac puncture exsanguination, the colon was ligated and removed to an anaerobic chamber (AS-580, Anaerobe Systems). The fecal content was removed within the chamber and was diluted 1:10 with phosphate buffer (1 gram fecal content to 9 mL phosphate buffer) and the resulting mixture was homogenized using a handheld Omni Tissue Master. The fecal homogenate was centrifuged at 2000 g for 10 min to remove bulk material and the supernatant was removed and used for the incubations.
DMSO stock solutions (10 mM) of the test compounds and sulfasalazine (control) were prepared. Sulfasalazine was used as a positive control to confirm viability of the fecal supernatant-homogenate (see, e.g., Azad Khan et al., Clinical Science (1983) 64, 349-354). If the in vitro half-life (T½) for sulfasalazine in the fecal sample was less than 30 min, the fecal sample was deemed to be viable and in true anaerobic conditions. However, if the T½ for sulfasalazine was greater than 30 min, the fecal sample was typically contaminated with oxygen and was not viable. The final substrate concentration of each assay was 10 μM. Reactions were started by adding a 5 μL aliquot of diluted test compound stock solution into 300 μL of rat fecal supernatant-homogenate. At 0, 15, 30, 60, 90, and 120 min post reaction initiation, a 50 μL aliquot was removed and added to a mixture of 200 μL of acetonitrile with 3% formic acid and an internal standard. All samples were centrifuged at 2000 g for 10 min after which 50 μL of supernatant was diluted into 150 μL of water for analysis on an LC-MS system. In vitro half-lives (T½) for the test compounds were calculated as follows: T½=0.693/elimination rate constant. When the assay was performed more than once, individual values are reported.

Compound	T½	half-life at 10 μM [min]
C[C@@H]1CCN(C(=O)CC#N)C[C@@H]1N(C)c1ncnc2c1ccn2C(=O)N(C)CCN(C)C(=O)OCc1ccccc1O[C@@H]1O[C@H](C(=O)O)[C@@H](O)[C@H](O)[C@H]1O [Compound V-1, (2S,3S,4S,5R,6S)-6-(2-((((2-(4-(((3R,4R)-1-(2-Cyanoacetyl)-4-methylpiperidin-3-yl)(methyl)amino)-N-methyl-7H-pyrrolo[2,3-d]pyrimidine-7-carboxamido)ethyl)(methyl)carbamoyl)oxy)methyl)phenoxy)-3,4,5-trihydroxytetrahydro-2H-pyran-2-carboxylic Acid]	<15, <15 min	< 15
C[C@@H]1CCN(C(=O)CC#N)C[C@@H]1N(C)c1ncnc2c1ccn2C(=O)N(C)CCN(C)C(=O)OCc1ncccc1O[C@@H]1O[C@H](C(=O)O)[C@@H](O)[C@H](O)[C@H]1O [Compound V-2, (2S,3S,4S,5R,6S)-6-((2-((((2-(4-(((3R,4R)-1-(2-Cyanoacetyl)-4-methylpiperidin-3-yl)(methyl)amino)-N-methyl-7H-pyrrolo[2,3-d]pyrimidine-7-carboxamido)ethyl)(methyl)carbamoyl)oxy)methyl)pyridin-3-yl)oxy)-3,4,5-trihydroxytetrahydro-2H-pyran-2-carboxylic Acid]	–	< 15

Next, values leading:

T½	half-life at 10 μM [min]	Compound
< 15 min	20	Cc1ccc(O[C@@H]2O[C@H](C(=O)O)[C@@H](O)[C@H](O)[C@H]2O)c(N(C)C(=O)n2ccc3c(N(C)[C@H]4CN(C(=O)CC#N)CC[C@H]4C)ncnc32)c1 [Compound III-3, (2S,3S,4S,5R,6S)-6-(2-(4-(((3R,4R)-1-(2-Cyanoacetyl)-4-methylpiperidin-3-yl)(methyl)amino)-N-methyl-7H-pyrrolo[2,3-d]pyrimidine-7-carboxamido)-4-methylphenoxy)-3,4,5-trihydroxytetrahydro-2H-pyran-2-carboxylic Acid]
6 min and < 15 min	–	C[C@@H]1CCN(C(=O)CC#N)C[C@@H]1N(C)c1ncnc2c1ccn2C(=O)N(C)c1cc(C(F)(F)F)ccc1O[C@@H]1O[C@H](C(=O)O)[C@@H](O)[C@H](O)[C@H]1O [Compound III-4, (2S,3S,4S,5R,6S)-6-(2-(4-(((3R,4R)-1-(2-cyanoacetyl)-4-methylpiperidin-3-yl)(methyl)amino)-N-methyl-7H-pyrrolo[2,3-d]pyrimidine-7-carboxamido)-4-(trifluoromethyl)phenoxy)-3,4,5-trihydroxytetrahydro-2H-pyran-2-carboxylic Acid]
–	< 15	C[C@@H]1CCN(C(=O)CC#N)C[C@@H]1N(C)c1ncnc2c1ccn2C(=O)N(C)c1cc(Cl)ccc1O[C@@H]1O[C@H](C(=O)O)[C@@H](O)[C@H](O)[C@H]1O [Compound III-5, (2S,3S,4S,5R,6S)-6-(4-Chloro-2-(4-(((3R,4R)-1-(2-cyanoacetyl)-4-methylpiperidin-3-yl)(methyl)amino)-N-methyl-7H-pyrrolo[2,3-d]pyrimidine-7-carboxamido)phenoxy)-3,4,5-trihydroxytetrahydro-2H-pyran-2-carboxylic Acid]
<15, <15 min	< 15	C[C@@H]1CCN(C(=O)CC#N)C[C@@H]1N(C)c1ncnc2c1ccn2C(=O)N(C)Cc1cc([N+](=O)[O-])ccc1O[C@@H]1O[C@H](C(=O)O)[C@@H](O)[C@H](O)[C@H]1O [Compound III-7, (2S,3S,4S,5R,6S)-6-(2-((4-(((3R,4R)-1-(2-Cyanoacetyl)-4-methylpiperidin-3-yl)(methyl)amino)-N-methyl-7H-pyrrolo[2,3-d]pyrimidine-7-carboxamido)methyl)-4-nitrophenoxy)-3,4,5-trihydroxytetrahydro-2H-pyran-2-carboxylic Acid]
